For assay [1], the system named is Alzheimer's patients. The following applies: Rogers, J., et. al., Neurology, 43, 1609, (1993); cited from earlier work.
Assay [2] deals with PGE2. Briefly: Inhibition of eicosanoid (prostaglandin E2) synthesis in vivo, carrageenan air-pouch model in rats. The following applies: oral, male rats. Set-up: species or system rat. Here is the method: In this assay, an air-pouch is created in the rat and the PGE2 levels in the air-pouch exudate are measured by enzyme immunoassay. Briefly, male rats were anesthetized using a 60:40 CO2 :O2 mixture and subsequently injected subcutaneously with 20 ml of sterilized air, under aseptic conditions, in the proximal area of the dorsum. This injection of sterile air causes the creation of a subcutaneous "air pouch". The next day, a further 10 ml of sterile air was injected into the previously formed pouch using the same technique. […] Control rats received vehicle alone. After 30 minutes, 5 ml of a 0.5% solution of carrageenan (Sigma, Lambda Type IV) was injected into the air pouch. The rats were euthanized 3 or 6 h after the compound administration. […] The total exudate volume was recorded, and the samples were analyzed for PGE2 and 6-keto PGF1 by ELISA (Titerzyme®, PerSeptive Diagnostics, Boston, Mass.) and TxB2 by radioimmuno assay (New England Nuclear Research, Boston, Mass., Catalog No. NEK-037), according to the manufacturer's directions.
The mean concentrations of PGE2 were calculated for each group. The anti-inflammatory activity of test materials is expressed as the percent inhibition of PGE2 formation in the test group relative to the control group.

Assay [3] has as its system carrageenan-induced paw edema. Briefly: Inhibition of carrageenan-induced paw edema in the rat. It is filed as in vivo. The following applies: oral, female rats. Here is the method: The anti-inflammatory activity of compounds of this invention was determined by measuring the inhibition of carrageenan-induced paw edema in the rat, using a modification of the method described in Winter C. A. et al., "Carrageenan-Induced Edema in Hind Paw of the Rat as an Assay for Anti-inflammatory Drugs" Proc. Soc. Exp. Biol. Med. 111, 544-547, (1962). This assay has been used as a primary in vivo screen for anti-inflammatoryactivity of most NSAIDs, and is considered predictive of human efficacy. Briefly, test materials were administered orally to female rats in a volume of 1 ml prepared as solutions or suspensions in an aqueous vehicle containing 0.9% sodium chloride, 0.5% sodium carboxymethyl-cellulose, 0.4% polysorbate 80, 0.9% benzyl alcohol and 97.3% distilled water. Control rats received vehicle alone. After 1 h 0.05 ml of a 0.5% solution of Carrageenan (Type IV Lambda, Sigma Chemical Co.) in 0.9% saline was injected into the subplantar region of the right hind paw. Three hours later the rats were euthanized in a carbon dioxide atmosphere; hind paws were removed by severing at the tatso-crural joint; and the left and right paws were weighed. The increase in weight of the right paw over the left paw was obtained for each animal and the mean increases were calculated for each group. The anti-inflammatory activity of the test materials is expressed as the percent inhibition of the increase in hind paw weight of the test group relative to the vehicle dosed control group.
The anti-inflammatory activities (expressed as % inhibition) of some of the compounds of the invention were: […]

For assay [4], the target named is T1, COX I (Homo sapiens, UniProt P23219).
T1 construct: made in house; baculovirus-infected insect cells according to the cited Barnett et al. 1994 (own knowledge)
Briefly: Inhibition of COX I in vitro (radiometric assay, partially purified enzyme). The class given is biochemical. Here is the method:
(§1) The COX I and COX II inhibitory activity of compounds of this invention in vitro was determined using partially purified COX I and COX II enzymes, prepared as described in J. Barnett et. al., Biochim. Biophys.
(§2) COX I and COX II samples were diluted with Tris-HCl buffer (SOmM Tris-HCl, pH 7.9) containing 2 mM EDTA and 10% glycerol and reconstituted by incubating first with 2 mM phenol for 5 minutes and then with 1 micromolar hematin for an additional 5 minutes. 125 μl of the reconstituted COX I or COX II enzyme were preincubated for 10 minutes at room temperature in a shaking water bath with the compounds of the invention dissolved in 2-15 μl of DMSO or the carrier vehicles (control samples). The enzyme reaction was initiated by adding 25 μl of 1-[14 C]arachidonic acid (80,000-100,000 cpm/tube; 20 micromolar final concentration) and the reaction was allowed to continue for an additional 45 seconds. The reaction was terminated by adding 100 μl of 2N HCl and 750 μl water. An aliquot (950 μl) of the reaction mixture was loaded onto a 1 ml C18 Sep-Pak column (J. T. Baker, Phillipsburg, N.J.) which had been previously washed with 2-3 ml methanol and equilibrated with 5-6 ml distilled water. Oxygenated products were quantitatively eluted with 3 ml of acetonitrile/water/acetic acid (50:50:0.1, v/v) and the radioactivity in the eluate determined in a scintillation counter.

In assay [5] the target is T2, COX II (Homo sapiens, UniProt P35354).
T2 construct: made in house; baculovirus-infected insect cells according to the cited Barnett et al. 1994 (own knowledge)
T2 sequence (P35354 18-604): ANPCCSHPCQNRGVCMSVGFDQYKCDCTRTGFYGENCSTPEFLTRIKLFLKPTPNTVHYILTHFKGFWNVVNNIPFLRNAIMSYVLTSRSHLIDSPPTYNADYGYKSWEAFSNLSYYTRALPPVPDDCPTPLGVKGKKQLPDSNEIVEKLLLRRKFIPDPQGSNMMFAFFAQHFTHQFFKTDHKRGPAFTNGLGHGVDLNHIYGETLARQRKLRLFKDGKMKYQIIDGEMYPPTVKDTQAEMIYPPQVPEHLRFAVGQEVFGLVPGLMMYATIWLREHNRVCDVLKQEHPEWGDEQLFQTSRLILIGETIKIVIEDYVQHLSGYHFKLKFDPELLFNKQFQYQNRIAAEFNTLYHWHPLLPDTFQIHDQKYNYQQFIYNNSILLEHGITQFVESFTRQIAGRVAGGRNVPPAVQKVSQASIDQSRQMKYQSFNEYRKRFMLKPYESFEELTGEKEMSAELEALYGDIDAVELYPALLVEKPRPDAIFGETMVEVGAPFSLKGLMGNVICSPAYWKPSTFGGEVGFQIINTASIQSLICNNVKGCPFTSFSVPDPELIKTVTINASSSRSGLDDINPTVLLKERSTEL
As to the kind of experiment: Inhibition of COX II in vitro (radiometric assay, partially purified enzyme). The class given is biochemical. Here is the method:
as §1, §2

T1 sequence (P23219 24-599): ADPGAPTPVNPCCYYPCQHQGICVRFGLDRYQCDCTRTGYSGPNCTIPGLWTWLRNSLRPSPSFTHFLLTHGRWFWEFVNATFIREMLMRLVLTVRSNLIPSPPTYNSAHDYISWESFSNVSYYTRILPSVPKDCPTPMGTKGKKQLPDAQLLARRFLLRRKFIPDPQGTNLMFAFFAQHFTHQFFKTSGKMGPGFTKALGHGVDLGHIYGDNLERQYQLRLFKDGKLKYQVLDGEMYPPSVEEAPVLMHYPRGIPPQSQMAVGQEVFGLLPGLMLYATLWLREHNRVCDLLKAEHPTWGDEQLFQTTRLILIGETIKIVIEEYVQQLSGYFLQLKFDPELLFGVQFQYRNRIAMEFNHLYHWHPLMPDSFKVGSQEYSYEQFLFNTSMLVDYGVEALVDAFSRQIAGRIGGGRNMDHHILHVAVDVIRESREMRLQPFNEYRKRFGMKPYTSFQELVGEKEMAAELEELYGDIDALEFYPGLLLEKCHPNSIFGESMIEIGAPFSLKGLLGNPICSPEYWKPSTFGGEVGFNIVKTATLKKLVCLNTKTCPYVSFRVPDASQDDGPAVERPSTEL

For the compound `COc1ccc2c(c1)c(CC(=O)O)c(C)n2C(=O)c1ccc(Cl)cc1` [Indomethacin, reference compound], the “inhibition of cognitive decline of Alzheimer's patients” value in assay [1] is on record as “inhibit the cognitive decline of Alzheimer's patients”. In addition, in assay [2] (2-5 mg/Kg), the “% Inhibition of air pouch PGE2 formation” value is listed as above 70%.
Take `CS(=O)(=O)c1ccc2c(C(=O)c3ccccc3F)c(C#N)ccc2c1` [compound 99, 5-(2-fluorobenzoyl)-6-cyano-2-methylsulfonylnaphthalene]: the “% Inhibition of paw edema” value in assay [3] (10 mg/Kg) amounted to 38%. Besides, the IC50 (in general, the midpoint of a concentration-inhibition curve) in assay [4] was above 100000 nM; in assay [5], 500 nM. In assay [2] (3 mg/Kg), the “% Inhibition of air pouch PGE2 formation” value amounted to 86%.
As to `CS(=O)(=O)c1ccc2c(C(=O)c3ccc(Cl)cc3)c(C#N)ccc2c1` [compound 104, 5-(4-chlorobenzoyl)-6-cyano-2-methylsulfonylnaphthalene], the “% Inhibition of paw edema” value in assay [3] (30 mg/Kg) was determined as 33%. Moreover, the 50% inhibitory concentration (IC50) in assay [4] was determined as 93000 nM; in assay [5] it was 570 nM. For the same compound, in assay [2] (1 mg/Kg), the “% Inhibition of air pouch PGE2 formation” value came out at 76.5%.
